In data set [1] the test system is pentetrazol induced epilepsy in rats. Put plainly: Pentetrazol induced epilepsy assay. The format is in vivo. As to conditions: rat, subcutaneous 1, 3, 10 and 15 mg/kg, 100 mg/kg pentetrazol 0.5 hour later. On the procedure: Pentetrazol induced epilepsy assays: firstly, C5 or 70% PGE400 was injected to rats, and then 100 mg/kg pentetrazol was subcutaneously injected to rats half an hour later. Pentetrazol was dissolved in saline water. Then the convulsive response of rats was observed. Fatholahi standard was adopted to score the convulsive response. Grade 0, no response; Grade 1, rhythmic mouth and face spasm; Grade 2, fluctuating wandering spasm of body; Grade 3, systemic myoclonus and warped hip; Grade 4, body turning to one side; Grade 5, renvers and systemic tetanic convulsion. It took 30 minutes for observation after administration. The highest grade and the latency time from pentetrazol injection to the induction of the highest grade were collected.

In data set [2] the test system is SNI model rats (neuropathic pain). Put plainly: Spared nerve injury (SNI) model, neuropathic pain, mechanical pain threshold. Format: in vivo. As to conditions: rat. On the procedure:
Male SD rats (200-250 g) were used, 6 per group in the cage. All the animals were placed under 12 hours light/cycle (i.e. 12 hours light and 12 hours dark in each day), free to food and water. All the experiments were conducted under the condition that the observers were blind to pharmaceutical treatment.
Spared nerve injury model (SNI): 10% chloral hydrate was injected intraperitoneally to anesthetize rats. […] The muscle was longitudinally separated to expose the core of sciatic nerve and the branching below: tibial nerve, common peroneal nerve and sural nerve. The tibial nerve and common peroneal nerve were ligatured and cut and small sural nerve was retained, meanwhile preventing any injury. The muscle and skin were sutured layer by layer, and then antibiotics were injected intraperitoneally for antibacterial purpose. For detailed methods, please refer to Decosterd I and Woolf C J. Spared nerve injury: an animal model of persistent peripheral neuropathic pain. 2000 August; Pain 87(2):149-58.
Method for detecting mechanical hyperalgesia in rats: firstly CFA solution was injected in the thenar of rats. After 24 hours, mechanical hyperalgesia quantitative detection was adopted to measure the paw withdrawal of rats to normal and harmless mechanical stimulation. Evaluation was conducted according to reference (Chaplan S R et al., Quantitative assessment of tactile allodynia in the rat paw. J Neurosci Methods. 1994 July; 53(1):55-63). In this method, the von Frey fibers with different bending force (equivalent to the range of 1-50 g force) were used to apply harmless mechanical stimulation. The rats were placed in organic glass box with metal mesh plate, and the von Frey fibers were applied on the surface of leg thenar. The von Frey fibers were applied vertically to the surface of thenar to generate the force that will trigger slight resistance to the leg. 2-3 seconds were maintained for every leg thenar. If the leg withdrew suddenly, positive records were recorded. The threshold was the mean of the weight that caused 50% paw withdrawal response (5-6 paw withdrawal/10 stimulations) in overall 10 stimulations.
Compounds MRK 016, C2, C3, C4, C5, C6, C7, C8 or α5IA (A5I) were dissolved in 70% PGE400 (PGE400:water=70:30 in volume). For injection dose, MRK016 was 2 mg/kg body weight; A5I was 3 mg/kg body weight; C2, C3, C4, C5, C6, C7 and C8 were 3 mg/kg body weight.
MRK016-M3 was dissolved in 90% PGE400 (PGE400:water=90:10 in volume). The doses were 10 mg/kg, 3 mg/kg, 1 mg/kg and 0.3 mg/kg, respectively for oral administration.
The method for behavioral data statistics was unpaired t-test. *, p<0.05, represents significant difference.

Data set [3] concerns CFA induced inflammatory pain model rats (mechanical pain). Put plainly: CFA induced inflammatory pain model, mechanical pain threshold. The format is in vivo. As to conditions: rat, 1 hour after administration.
The subject of data set [4] is CFA induced inflammatory pain model rats (heat pain). Put plainly: CFA induced inflammatory pain model, heat pain threshold. Format: in vivo. The note with it: rat, 1 hour after administration.
Data set [5] concerns the target T1, Human recombinant α5-GABAA receptor (Homo sapiens, UniProt P18507+P31644).
T1 construct: expressed in transfected cells; host or cells: 293 cell line
Put plainly: Electrophysiological inverse agonist efficacy on GABA-induced current. The format is cell-based. The note with it: change of GABA-induced current; negative = inhibition. On the procedure: (§1) Different subunits of GABAA receptor were expressed in cell lines, including human kidney epithelial cell line, 293 cell line or L(tk−) cell line. The cells were cultured in medium, and such cells were used as the cellular model for screening drugs to suppress pain. a subunit, β subunit and γ subunit are indispensable for one complete functional GABAA receptor.
(§2) (a) simultaneously expressing α5 subunit (for the protein sequence, see GenBank accession number NM_001165037.1), β3 subunit (for the protein sequence, see GenBank accession number NM_021912.4) and γ2 subunit (for the protein sequence, see GenBank accession number NM_198904.2) in 293 cell line, forming the GABAA receptor containing α5 subunit;
(§3) The inventors used electrophysiological methods to measure the inverse agonist efficacy of the substances to be measured, see the method described in literature (Ballard T M et al., RO4938581, a novel cognitive enhancer acting at GABAA alpha5 subunit-containing receptors. Psychopharmacology (Berl). 2009 January; 202 (1-3): 207-23). […] Many methods can be used by those skilled in the art to evaluate the binding capacity of the ligand of α5-GABAA receptor to the α5-GABAA receptor, including but not limiting to the method above.
(§4) Inverse agonist efficacy represents the inhibition percentage of the candidate substance on the current induced by GABA through α5-GABAA receptor=(the current intensity induced by GABA through α5-GABAA receptor with the existence of candidate substance−the current intensity induced by GABA through α5-GABAA receptor without the existence of candidate substance)/the current intensity induced by GABA through α5-GABAA receptor without the existence of candidate substance.

Data set [6] has as its system α5-GABAA receptor in central nervous system. As to conditions: in vivo, Jones et al. 2006; cited from earlier work.
Data set [7] deals with T2, Human recombinant GABAA receptor containing α3 subunit (Homo sapiens, UniProt P18507+P34903).
T2 construct: expressed in transfected cells; host or cells: 293 cell line
As to the kind of experiment: Electrophysiological inverse agonist efficacy on GABA-induced current. Format: cell-based. The note with it: change of GABA-induced current; negative = inhibition. On the procedure:
as §1
(§5) (d) simultaneously expressing α3 subunit (for the protein sequence, see GenBank accession number NM_000808.3), β3 subunit and γ2 subunit in 293 cell line, forming the GABAA receptor containing α3 subunit;
as §3, §4

The conditions of data set [8]: human, Phase I; cited from earlier work.
Data set [9] has as its target T3, Human recombinant GABAA receptor containing α2 subunit (α2, β3, γ2) (Homo sapiens, UniProt P18507+P47869).
T3 construct: expressed in transfected cells; host or cells: 293 cell line
As to the kind of experiment: Competitive radioligand binding ([3H]Ro-0151788) on membranes of 293 cells, Ki. The note with it: human recombinant GABAA subtype containing α2; read-out: Affinity, nM (α2). On the procedure: as §1
(§6) In this example, the inventors established the following cellular models:
(§7) (b) simultaneously expressing α1 subunit (GenBank accession number: NM_001127648.1), β3 subunit and γ2 subunit in 293 cell line, forming the GABAA receptor containing α1 subunit; • (c) simultaneously expressing α2 subunit (for the protein sequence, see GenBank accession number NM_000813.2), β3 subunit and γ2 subunit in 293 cell line, forming the GABAA receptor containing α2 subunit;
(§8) Each of the (a) to (d) above could form a GABAA receptor with complete function.
(§9) Then, the cellular membrane was extracted and the protein concentration was measured. The competitive binding of the substances to be measured and radiolabelled compounds (e.g. 1 nM [^3H]Ro-0151788) were detected respectively to calculate the Ki value of the substances to be measured, see the method described in literature (Ballard T M et al., RO4938581, a novel cognitive enhancer acting at GABAA alpha5 subunit-containing receptors. Psychopharmacology (Berl). 2009 January; 202(1-3): 207-23). If the binding inhibition constant Ki (nM) of α5-GABAA receptor with the candidate substances in experimental group is less than the Ki of the receptor containing other a subunit (α1 subunit, α2 subunit or α3 subunit), then the candidate substance is a potential drugs for preventing, relieving or treating pain. Many methods can be used by those skilled in the art to evaluate the binding capacity of the ligand of α5-GABAA receptor to the α5-GABAA receptor, including but not limiting to the method above.

The target in data set [10] is T4, Human recombinant GABAA receptor containing α1 subunit (α1, β3, γ2) (Homo sapiens, UniProt P14867+P18507).
T4 construct: expressed in transfected cells; host or cells: 293 cell line
The description is as above. As to conditions: human recombinant GABAA subtype containing α1; read-out: Affinity, nM (α1). On the procedure:
as §1, §6, §7, §8, §9

Data set [11] deals with T5, Human recombinant GABAA receptor containing α3 subunit (α3, β3, γ2) (Homo sapiens, UniProt P18507+P34903).
T5 construct: expressed in transfected cells; host or cells: 293 cell line
The data set is described as above. As to conditions: human recombinant GABAA subtype containing α3; read-out: Affinity, nM (α3). On the procedure:
as §1, §6, §5, §8, §9

The target in data set [12] is T6, Human recombinant GABAA receptor containing α5 subunit (α5, β3, γ2) (Homo sapiens, UniProt P18507+P31644).
T6 construct: expressed in transfected cells; host or cells: 293 cell line
Described as above. The note with it: human recombinant GABAA subtype containing α5; read-out: Affinity, nM (α5). On the procedure:
as §1, §6, §2, §8, §9

In data set [13] the test system is Human recombinant GABAA receptor containing α2 subunit. Put plainly: Electrophysiological inverse agonist efficacy on GABA-induced current. The format is cell-based. The note with it: change of GABA-induced current; negative = inhibition. On the procedure:
as §1, §7, §3, §4

The target of data set [14] is T7, Human recombinant GABAA receptor containing α1 subunit (Homo sapiens, UniProt P14867+P18507).
T7 construct: expressed in transfected cells; host or cells: 293 cell line
The data set is described as above. The note with it: change of GABA-induced current; negative = inhibition. Format: cell-based. On the procedure:
as §1, §7, §3, §4

Data set [15] concerns the target T1, Human recombinant α5-GABAA receptor. The note with it: Jones et al. 2006; cited from earlier work.

These results are taken from patent US20150374705A1, “Substances for treatment or relief of pain” (Shanghai Institues for Biological Sciences, priority 2012, published 2015).

Structures are written as SMILES. Entries after “also recorded” stand apart in the source; their conditions may differ.

Take `OCc1cc(-c2nnc3c4ccccc4c(OCc4ccccn4)nn23)no1` [Compound C5, {3-[6-(Pyridin-2-ylmethoxy)-[1,2,4]triazolo[3,4-a]phthalazin-3-yl]-isoxazol-5-yl}-methanol]: in [1], the “Effect on pentetrazol induced epilepsy (responsive grade and latency time)” value is reported as “no effect”. Also, the “Neuropathic pain (SNI model), analgesic effect” value in [2] (3 mg/kg subcutaneous, 14 days after SNI, 1 hour after administration, 3 mg/kg) is “efficiently inhibit nociceptive response; also recorded: efficiently suppressed neuropathic pain”. In data set [2] (subcutaneous 1 mg/kg or 3 mg/kg, 14 days after SNI, 0.5-12 hours after administration), the “Suppression of neuropathic pain at different time points” value is given as “efficiently could inhibit nociceptive response; also recorded: efficiently suppressed neuropathic pain”. Besides, the “CFA induced inflammatory pain model (mechanical pan), analgesic effect” value in [3] (3 mg/kg injection, 7 days after CFA, 3 mg/kg) was “efficiently inhibit nociceptive response; also recorded: efficiently suppressed heat pain or mechanical pain response”. The “CFA induced inflammatory pain model (heat pain), analgesic effect” value in [4] (3 mg/kg injection, 3 days after CFA, 3 mg/kg) is “efficiently inhibit nociceptive response; also recorded: efficiently suppressed heat pain or mechanical pain response”.

Take `Cc1cc(-c2nncc3c(C(C)(C)C)c(OCc4ncnn4C)nn23)no1` [MRK016, 3-tert-butyl-7-(5-methylisoxazol-3-yl)-2-(1-methyl-1H-1,2,4-triazol-5-ylmethoxy)-pyrazolo[1,5-d]-[1,2,4]triazine]: the “Inverse agonist efficacy, % (α5)” value in data set [5] is −55%. In data set [2] (subcutaneous injection 2 mg/kg, 7 days after SNI model, 1 hour after administration), the “Suppression of neuropathic pain (mechanical pain threshold)” value is “efficiently suppressed neuropathic pain”. Besides, the “Binding to α5-GABAA receptor in brain / inhibition of (3H)Ro-15-1788 binding in center” value in data set [6] was “can efficiently inhibit; also recorded: focused in the brain”. In addition, in [3] (2 mg/kg intraperitoneal, 7 days after CFA model, 2 mg/kg), the “Suppression of mechanical pain” value is “efficiently suppressed mechanical pain; also recorded: efficiently suppress mechanical pain”. Also, the “Inverse agonist efficacy, % (α3)” value in [7] is listed as −9%. Besides, the “Side effects in Phase I clinical trial” value in data set [8] was “front heaviness, headache and nausea and vomiting”. Also, the Ki worked out at 0.85 nM in data set [9], 0.83 nM in data set [10], 0.77 nM in [11] and 1.36 nM in data set [12]. The “Suppression of heat pain” value in data set [4] (2 mg/kg intraperitoneal, 3 days after CFA model, 2 mg/kg) is reported as “efficiently suppressed heat pain; also recorded: efficiently suppress heat pain”. Besides, the “Inverse agonist efficacy, % (α2)” value in [13] is 6%. Moreover, the “Inverse agonist efficacy, % (α1)” value in data set [14] is −16%.

Take `Cc1cc(-c2nncc3c(C(C)(C)CO)c(OCc4ncnn4C)nn23)no1` [MRK016-M2]: the “Inverse agonist efficacy, % (α5)” value in data set [5] is reported as −40%. Besides, the “Binding to α5-GABAA receptor in brain / inhibition of (3H)Ro-15-1788 binding in center” value in data set [6] was “not capable of binding the α5-GABAA receptor in brain”. Moreover, the “Inverse agonist efficacy, % (α3)” value in data set [7] is given as −32%. Further, the figures for the Ki in data set [10], in data set [11] and in data set [12] were 26 nM, 9.8 nM and 9.4 nM, respectively. For the same compound, in data set [15], the “Inverse agonist effect of α5-GABAA receptor” value is reported as “significant inverse agonist effect”. Further, the “Inverse agonist efficacy, % (α2)” value in data set [13] is listed as −23%. Besides, the “Inverse agonist efficacy, % (α1)” value in data set [14] is given as −41%.
